What was measured:
[1] = biological target: T1, Activin receptor type-1B (Homo sapiens) (UniProt P36896)
T1 sequence (whole entry): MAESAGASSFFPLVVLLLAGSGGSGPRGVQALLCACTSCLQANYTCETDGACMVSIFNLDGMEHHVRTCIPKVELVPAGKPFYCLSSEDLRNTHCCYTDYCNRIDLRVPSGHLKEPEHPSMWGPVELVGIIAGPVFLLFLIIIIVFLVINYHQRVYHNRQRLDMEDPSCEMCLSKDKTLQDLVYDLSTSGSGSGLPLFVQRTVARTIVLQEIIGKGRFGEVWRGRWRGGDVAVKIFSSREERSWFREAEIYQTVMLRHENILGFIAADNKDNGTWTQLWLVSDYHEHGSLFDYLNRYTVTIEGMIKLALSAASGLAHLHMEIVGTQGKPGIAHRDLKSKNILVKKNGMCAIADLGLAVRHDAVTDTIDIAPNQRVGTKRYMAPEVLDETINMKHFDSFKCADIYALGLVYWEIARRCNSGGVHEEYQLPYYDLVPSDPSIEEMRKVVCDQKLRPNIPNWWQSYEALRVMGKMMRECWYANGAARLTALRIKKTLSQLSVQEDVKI

[2] = biological target: RAC-alpha serine/threonine-protein kinase (Homo sapiens) (UniProt P31749)
[3] = tested on: ALK tyrosine kinase receptor (Homo sapiens), Q9UM73 [L1196M]
[4] = biological target: Bone morphogenetic protein receptor type-1A (Homo sapiens) (UniProt P36894)
[5] = biological target: Cyclin-dependent kinase 19 (Homo sapiens) (UniProt Q9BWU1)
[6] = biological target: Tyrosine-protein kinase CSK (Homo sapiens) (UniProt P41240)
Sequence of Tyrosine-protein kinase CSK (Homo sapiens) (P41240 2-450 limits assumed): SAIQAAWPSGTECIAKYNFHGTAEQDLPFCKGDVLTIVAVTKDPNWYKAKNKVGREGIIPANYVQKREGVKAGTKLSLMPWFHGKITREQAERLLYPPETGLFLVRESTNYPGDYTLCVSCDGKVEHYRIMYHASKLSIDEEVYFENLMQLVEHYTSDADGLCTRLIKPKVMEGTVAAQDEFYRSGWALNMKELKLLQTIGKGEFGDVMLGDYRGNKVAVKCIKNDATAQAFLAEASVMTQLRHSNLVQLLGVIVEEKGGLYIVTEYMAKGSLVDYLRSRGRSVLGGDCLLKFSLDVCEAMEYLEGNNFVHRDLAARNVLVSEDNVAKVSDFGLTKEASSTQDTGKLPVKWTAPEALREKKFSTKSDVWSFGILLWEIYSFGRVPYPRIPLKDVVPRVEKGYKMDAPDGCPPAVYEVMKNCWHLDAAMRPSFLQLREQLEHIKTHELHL

[7] = biological target: Casein kinase I isoform gamma-3 (Homo sapiens) (UniProt Q9Y6M4)
Sequence of Casein kinase I isoform gamma-3 (Homo sapiens) (Q9Y6M4 whole entry, looked up, canonical isoform): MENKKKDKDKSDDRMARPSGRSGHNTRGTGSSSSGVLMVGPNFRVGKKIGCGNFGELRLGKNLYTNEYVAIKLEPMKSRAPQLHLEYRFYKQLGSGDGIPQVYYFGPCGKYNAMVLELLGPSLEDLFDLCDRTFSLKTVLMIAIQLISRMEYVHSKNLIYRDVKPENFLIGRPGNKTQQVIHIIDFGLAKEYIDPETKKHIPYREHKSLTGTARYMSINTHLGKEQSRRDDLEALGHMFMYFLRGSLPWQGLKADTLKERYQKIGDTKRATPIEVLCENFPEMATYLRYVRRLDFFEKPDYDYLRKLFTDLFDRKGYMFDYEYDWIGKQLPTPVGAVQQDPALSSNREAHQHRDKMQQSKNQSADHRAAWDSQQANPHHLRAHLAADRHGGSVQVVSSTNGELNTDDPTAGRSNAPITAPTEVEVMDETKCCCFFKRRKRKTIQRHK

[8] = biological target: Casein kinase II subunit alpha' (Homo sapiens) (UniProt P19784)
[9] = biological target: Receptor-type tyrosine-protein kinase FLT3 (Homo sapiens) (UniProt P36888)
[10] = tested on: Mast/stem cell growth factor receptor Kit (Homo sapiens), P10721 [L576P]
[11] = biological target: Mitogen-activated protein kinase kinase kinase 9 (Homo sapiens) (UniProt P80192)
[12] = biological target: Serine/threonine-protein kinase MRCK alpha (Homo sapiens) (UniProt Q5VT25)
Sequence of Serine/threonine-protein kinase MRCK alpha (Homo sapiens) (Q5VT25 whole entry): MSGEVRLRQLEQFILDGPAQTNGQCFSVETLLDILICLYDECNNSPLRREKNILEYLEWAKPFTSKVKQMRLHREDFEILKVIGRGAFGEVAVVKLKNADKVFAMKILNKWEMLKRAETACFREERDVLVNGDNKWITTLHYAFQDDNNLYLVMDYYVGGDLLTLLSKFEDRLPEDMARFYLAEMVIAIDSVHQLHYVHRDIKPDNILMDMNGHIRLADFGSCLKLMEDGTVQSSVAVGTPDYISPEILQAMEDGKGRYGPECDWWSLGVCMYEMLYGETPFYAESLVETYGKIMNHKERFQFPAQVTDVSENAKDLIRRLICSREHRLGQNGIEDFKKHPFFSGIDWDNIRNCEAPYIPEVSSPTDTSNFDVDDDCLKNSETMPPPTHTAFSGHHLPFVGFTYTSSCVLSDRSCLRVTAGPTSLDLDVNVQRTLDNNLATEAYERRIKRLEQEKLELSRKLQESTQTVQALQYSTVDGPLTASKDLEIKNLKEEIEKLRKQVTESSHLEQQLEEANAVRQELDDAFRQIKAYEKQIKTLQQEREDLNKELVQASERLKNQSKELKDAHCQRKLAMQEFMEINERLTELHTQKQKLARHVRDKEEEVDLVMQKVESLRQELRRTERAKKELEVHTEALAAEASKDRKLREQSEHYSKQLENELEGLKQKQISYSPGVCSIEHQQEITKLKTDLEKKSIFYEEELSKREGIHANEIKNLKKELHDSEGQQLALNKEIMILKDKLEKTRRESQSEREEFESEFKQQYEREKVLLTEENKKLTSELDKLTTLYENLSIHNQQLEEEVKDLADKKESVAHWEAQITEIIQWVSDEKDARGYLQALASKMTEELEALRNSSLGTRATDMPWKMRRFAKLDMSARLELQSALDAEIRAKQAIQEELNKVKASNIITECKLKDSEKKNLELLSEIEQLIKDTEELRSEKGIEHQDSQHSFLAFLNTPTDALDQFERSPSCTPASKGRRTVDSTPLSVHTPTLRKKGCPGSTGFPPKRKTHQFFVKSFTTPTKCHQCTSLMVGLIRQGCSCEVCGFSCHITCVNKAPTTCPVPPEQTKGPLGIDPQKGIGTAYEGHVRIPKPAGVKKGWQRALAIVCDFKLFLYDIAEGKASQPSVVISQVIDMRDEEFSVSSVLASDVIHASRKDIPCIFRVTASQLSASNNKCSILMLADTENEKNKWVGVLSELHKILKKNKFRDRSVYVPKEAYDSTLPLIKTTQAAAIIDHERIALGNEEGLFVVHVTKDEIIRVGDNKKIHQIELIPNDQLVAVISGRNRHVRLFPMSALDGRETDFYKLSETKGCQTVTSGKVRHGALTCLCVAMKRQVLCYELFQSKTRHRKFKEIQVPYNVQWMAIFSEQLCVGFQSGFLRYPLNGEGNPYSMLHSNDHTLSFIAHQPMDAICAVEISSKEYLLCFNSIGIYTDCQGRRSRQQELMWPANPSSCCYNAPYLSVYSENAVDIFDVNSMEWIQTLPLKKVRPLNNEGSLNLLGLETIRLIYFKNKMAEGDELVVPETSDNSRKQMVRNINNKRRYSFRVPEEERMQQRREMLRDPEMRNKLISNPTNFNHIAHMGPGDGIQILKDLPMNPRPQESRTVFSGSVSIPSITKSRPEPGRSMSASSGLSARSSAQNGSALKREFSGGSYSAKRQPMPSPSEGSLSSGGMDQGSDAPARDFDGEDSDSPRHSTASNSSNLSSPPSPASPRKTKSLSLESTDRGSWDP

[13] = biological target: Serine/threonine-protein kinase PAK 3 (Homo sapiens) (UniProt O75914)
Sequence of Serine/threonine-protein kinase PAK 3 (Homo sapiens) (O75914 whole entry, looked up, canonical isoform): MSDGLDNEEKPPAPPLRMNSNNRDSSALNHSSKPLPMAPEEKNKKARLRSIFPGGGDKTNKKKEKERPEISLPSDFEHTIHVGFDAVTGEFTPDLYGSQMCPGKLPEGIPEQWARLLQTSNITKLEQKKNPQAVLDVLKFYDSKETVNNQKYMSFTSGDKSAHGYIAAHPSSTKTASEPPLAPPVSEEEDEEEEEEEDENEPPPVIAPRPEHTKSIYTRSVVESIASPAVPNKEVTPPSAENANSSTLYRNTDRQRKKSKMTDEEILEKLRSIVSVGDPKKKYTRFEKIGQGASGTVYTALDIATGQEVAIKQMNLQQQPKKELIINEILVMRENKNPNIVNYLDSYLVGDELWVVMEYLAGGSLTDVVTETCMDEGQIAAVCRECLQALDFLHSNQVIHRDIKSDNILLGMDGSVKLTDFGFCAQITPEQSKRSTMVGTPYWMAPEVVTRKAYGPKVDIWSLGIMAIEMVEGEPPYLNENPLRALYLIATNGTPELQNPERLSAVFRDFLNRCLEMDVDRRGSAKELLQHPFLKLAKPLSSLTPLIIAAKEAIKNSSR

[14] = tested on: Phosphatidylinositol 4,5-bisphosphate 3-kinase catalytic subunit alpha isoform (Homo sapiens), P42336 [I800L]
[15] = biological target: Serine/threonine-protein kinase PRP4 homolog (Homo sapiens) (UniProt Q13523)
[16] = biological target: RAF proto-oncogene serine/threonine-protein kinase (Homo sapiens) (UniProt P04049)
Sequence of RAF proto-oncogene serine/threonine-protein kinase (Homo sapiens) (P04049 whole entry): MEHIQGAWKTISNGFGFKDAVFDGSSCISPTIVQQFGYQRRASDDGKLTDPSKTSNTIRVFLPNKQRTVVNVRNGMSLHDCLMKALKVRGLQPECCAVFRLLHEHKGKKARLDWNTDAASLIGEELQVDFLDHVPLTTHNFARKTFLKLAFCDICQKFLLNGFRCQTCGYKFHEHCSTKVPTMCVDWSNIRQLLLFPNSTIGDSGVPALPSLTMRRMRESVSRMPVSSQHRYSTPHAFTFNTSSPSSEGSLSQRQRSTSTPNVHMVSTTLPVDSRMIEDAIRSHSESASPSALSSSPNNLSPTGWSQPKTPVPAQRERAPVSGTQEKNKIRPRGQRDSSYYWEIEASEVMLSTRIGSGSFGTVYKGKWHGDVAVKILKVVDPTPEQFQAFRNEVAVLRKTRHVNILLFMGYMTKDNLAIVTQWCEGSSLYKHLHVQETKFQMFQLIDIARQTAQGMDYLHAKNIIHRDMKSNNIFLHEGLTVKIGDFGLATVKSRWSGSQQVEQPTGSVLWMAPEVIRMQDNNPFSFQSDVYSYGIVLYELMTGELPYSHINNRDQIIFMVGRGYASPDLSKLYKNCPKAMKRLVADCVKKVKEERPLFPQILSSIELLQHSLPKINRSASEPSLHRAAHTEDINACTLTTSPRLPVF

[17] = tested on: Proto-oncogene tyrosine-protein kinase receptor Ret (Homo sapiens), P07949 [V804M]
[18] = biological target: Serine/threonine-protein kinase SIK2 (Homo sapiens) (UniProt Q9H0K1)
[19] = biological target: T2, Serine/threonine-protein kinase TAO3 (Homo sapiens) (UniProt Q9H2K8)
T2 sequence (whole entry): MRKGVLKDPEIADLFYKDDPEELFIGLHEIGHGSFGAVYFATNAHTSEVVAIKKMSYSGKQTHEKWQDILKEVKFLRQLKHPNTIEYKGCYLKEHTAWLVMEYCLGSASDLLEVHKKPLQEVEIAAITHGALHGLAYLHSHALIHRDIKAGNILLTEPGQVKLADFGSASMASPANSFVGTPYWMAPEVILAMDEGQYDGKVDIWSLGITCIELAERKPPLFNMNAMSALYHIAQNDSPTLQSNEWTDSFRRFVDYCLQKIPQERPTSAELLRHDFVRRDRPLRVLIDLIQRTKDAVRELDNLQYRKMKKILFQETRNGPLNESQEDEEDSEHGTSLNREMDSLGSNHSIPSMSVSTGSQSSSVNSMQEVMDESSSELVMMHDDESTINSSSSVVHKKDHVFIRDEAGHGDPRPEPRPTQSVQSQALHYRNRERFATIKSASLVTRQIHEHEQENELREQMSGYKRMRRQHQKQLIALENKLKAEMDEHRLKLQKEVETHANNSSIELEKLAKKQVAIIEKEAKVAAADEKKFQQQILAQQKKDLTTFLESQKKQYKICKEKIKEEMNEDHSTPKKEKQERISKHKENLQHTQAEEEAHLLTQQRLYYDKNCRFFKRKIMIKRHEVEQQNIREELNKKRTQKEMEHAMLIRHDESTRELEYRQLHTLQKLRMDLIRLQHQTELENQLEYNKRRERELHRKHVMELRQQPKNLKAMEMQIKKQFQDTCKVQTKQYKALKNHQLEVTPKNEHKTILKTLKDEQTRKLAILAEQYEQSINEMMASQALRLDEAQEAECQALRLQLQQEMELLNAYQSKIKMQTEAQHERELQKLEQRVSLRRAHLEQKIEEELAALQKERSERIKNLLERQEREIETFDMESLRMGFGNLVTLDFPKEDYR

[20] = biological target: Serine/threonine-protein kinase ULK1 (Homo sapiens) (UniProt O75385)
Sequence of Serine/threonine-protein kinase ULK1 (Homo sapiens) (O75385 whole entry): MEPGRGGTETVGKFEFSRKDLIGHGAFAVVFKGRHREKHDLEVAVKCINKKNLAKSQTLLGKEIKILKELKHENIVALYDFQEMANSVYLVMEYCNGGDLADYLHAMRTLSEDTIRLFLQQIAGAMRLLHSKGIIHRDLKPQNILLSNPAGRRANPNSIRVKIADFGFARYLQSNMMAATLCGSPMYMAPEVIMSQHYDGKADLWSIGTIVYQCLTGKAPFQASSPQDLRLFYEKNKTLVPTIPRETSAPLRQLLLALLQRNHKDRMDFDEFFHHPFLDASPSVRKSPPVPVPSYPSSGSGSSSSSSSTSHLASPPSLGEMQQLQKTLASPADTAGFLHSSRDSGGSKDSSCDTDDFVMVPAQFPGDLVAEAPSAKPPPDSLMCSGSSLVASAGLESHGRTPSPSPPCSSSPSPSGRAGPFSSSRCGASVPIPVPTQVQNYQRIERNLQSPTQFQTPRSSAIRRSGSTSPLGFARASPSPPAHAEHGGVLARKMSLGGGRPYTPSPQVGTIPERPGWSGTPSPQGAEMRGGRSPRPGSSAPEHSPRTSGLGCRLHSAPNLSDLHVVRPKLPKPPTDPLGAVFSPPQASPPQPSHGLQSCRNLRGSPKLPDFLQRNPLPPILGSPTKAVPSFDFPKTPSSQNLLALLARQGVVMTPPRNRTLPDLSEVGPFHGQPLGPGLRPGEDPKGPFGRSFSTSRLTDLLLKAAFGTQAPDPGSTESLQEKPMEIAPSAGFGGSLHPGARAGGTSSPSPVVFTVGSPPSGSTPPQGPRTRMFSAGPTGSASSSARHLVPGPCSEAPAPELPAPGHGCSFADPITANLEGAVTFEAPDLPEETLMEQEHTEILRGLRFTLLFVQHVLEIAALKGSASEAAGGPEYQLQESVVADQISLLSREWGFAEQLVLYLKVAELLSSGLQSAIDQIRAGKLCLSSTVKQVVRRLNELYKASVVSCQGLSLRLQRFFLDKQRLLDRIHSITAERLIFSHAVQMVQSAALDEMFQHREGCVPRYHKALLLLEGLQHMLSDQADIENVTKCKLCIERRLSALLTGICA

[21] = Compound concentration 100.0 nM
[22] = Compound concentration 1000.0 nM

C[C@@H]1CN(c2cc(-c3n[nH]c4ccc(OC5(C)CC5)cc34)ncn2)C[C@H](C)O1 [MLi-2]
residual activity [1, 21]: 90% | residual activity [2, 21]: 87% | residual activity [3, 21]: 78% | residual activity [4, 21]: 100% | residual activity [5, 21]: 70% | residual activity [6, 21]: 100% | residual activity [7, 21]: 95% | residual activity [8, 21]: 100% | residual activity [9, 21]: 87% | residual activity [10, 21]: 100% | residual activity [11, 21]: 100% | residual activity [12, 21]: 90% | residual activity [13, 21]: 83% | residual activity [14, 21]: 87% | residual activity [15, 21]: 83% | residual activity [16, 21]: 100% | residual activity [17, 21]: 97% | residual activity [18, 21]: 87% | residual activity [19, 21]: 69% | residual activity [20, 21]: 80%

C[C@@H]1CN(c2cc(-c3nn(C)c4ccc(OC5(C)CC5)cc34)ncn2)C[C@H](C)O1 [MLi-2-NC]
residual activity [1, 22]: 78% | residual activity [2, 22]: 100% | residual activity [3, 22]: 98% | residual activity [4, 22]: 85% | residual activity [5, 22]: 92% | residual activity [6, 22]: 100% | residual activity [7, 22]: 100% | residual activity [8, 22]: 86% | residual activity [9, 22]: 77% | residual activity [10, 22]: 100% | residual activity [11, 22]: 100% | residual activity [12, 22]: 89% | residual activity [13, 22]: 100% | residual activity [14, 22]: 66% | residual activity [15, 22]: 100% | residual activity [16, 22]: 100% | residual activity [17, 22]: 100% | residual activity [18, 22]: 100% | residual activity [19, 22]: 35% | residual activity [20, 22]: 76%
